Results published in patent US6326139A (priority 1997, dated 2001).
Entries after “also recorded” stand apart in the source; their conditions may differ. Like-named read-outs stand apart in the source and are kept apart here.

What was measured:
recombinant normal BuChE = biological target: T1, recombinant normal BuChE (Homo sapiens, UniProt P06276); test: Inactivation by carbamate inhibitors, normal BuChE; assay type: biochemical; conditions: for inactivation rate compared with AChE: common BuChE; for second order rate constant ki for inactivation: recombinant normal BuChE, inhibitor concentration in parentheses in table
T1 construct: made in house; host or cells: Xenopus oocytes injected with in vitro transcribed mRNA
Text: (§1) reagent concentration (in parentheses), to calculate second order rate

[1] = test system: serum "atypical" BuChE (G/G); test: Inactivation of immobilized serum BuChE, "atypical"; assay type: biochemical, human; conditions: for rate of irreversible inactivation versus normal: "atypical" serum BuChE
recombinant human AChE = test: Spontaneous reactivation after complete inhibition, AChE; assay type: biochemical
[2] = test system: recombinant human BuChE, normal and "atypical"; test: Spontaneous reactivation after complete inhibition, BuChE; assay type: biochemical
"atypical" BuChE [3] = biological target: T2, "atypical" BuChE (Homo sapiens, UniProt P06276, D98G)
Target sequence in this assay (P06276 29-602 D98G): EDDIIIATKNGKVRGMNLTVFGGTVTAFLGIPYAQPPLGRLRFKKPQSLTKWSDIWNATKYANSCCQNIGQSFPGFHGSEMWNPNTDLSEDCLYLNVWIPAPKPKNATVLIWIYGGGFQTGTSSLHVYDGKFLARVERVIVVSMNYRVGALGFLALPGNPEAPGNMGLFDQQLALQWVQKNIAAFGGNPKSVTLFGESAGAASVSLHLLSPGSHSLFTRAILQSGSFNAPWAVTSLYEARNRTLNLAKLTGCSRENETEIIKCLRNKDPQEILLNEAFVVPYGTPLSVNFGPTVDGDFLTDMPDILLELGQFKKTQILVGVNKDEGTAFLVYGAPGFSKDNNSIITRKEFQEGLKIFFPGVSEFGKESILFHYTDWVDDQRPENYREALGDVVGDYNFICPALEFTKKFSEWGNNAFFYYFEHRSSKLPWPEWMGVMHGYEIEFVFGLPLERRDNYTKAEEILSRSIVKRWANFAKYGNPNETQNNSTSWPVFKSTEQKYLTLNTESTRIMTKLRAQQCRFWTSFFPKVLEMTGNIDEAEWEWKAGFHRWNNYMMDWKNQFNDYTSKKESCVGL
Experimental: Recombinant normal and "atypical" BuChE were produced in Xenopus oocytes microinjected with in vitro transcribed BuChEmRNAs prepared from the corresponding cDNA types (Neville et al, 1990a).
Free binding sites were blocked with PBS-T buffer (144 mM NaCl, 20 mM Na phosphate pH 7.4, 0.05% Tween 20 and 0.01% Tymerosal) for 60 minutes at 37° C. […] Plates were washed three times with PBS-T prior to use.
Inactivation and reactivation measurements: Antibody-immobilized enzymes were exposed to the tested anti-ChEs in PBS-T buffer for varying times (0.5 to 80 minutes) following an initial determination of catalytic activities. At the noted time points, plates were washed three times with PBS-T and remaining substrate hydrolysis rates were determined (Loewenstein et al., 1993a). Spontaneous reactivation was measured for immobilized recombinant ChEs following complete inhibition, three washes with PBS-T, and subsequent incubation for the noted time and activity determination.

AChE (E6) = AChE (E6) (Homo sapiens, UniProt P22303); test: Inactivation by carbamate inhibitors, AChE E6; assay type: biochemical; parameters: made in house; host or cells: Xenopus oocytes injected with ACHE DNA; conditions: inhibitor concentration in parentheses in table
Text: as §1

AChE (E5) = AChE (E5) (Homo sapiens, UniProt P22303); test: Inactivation by carbamate inhibitors, AChE E5; assay type: biochemical; parameters: made in house; host or cells: Xenopus oocytes injected with ACHE DNA; conditions: inhibitor concentration in parentheses in table
Text: as §1

[4] = test system: BuChE in early placenta sections; test: Cytochemical ChE staining, early placenta; parameters: species or system human; conditions: 10^-5 M
[5] = test system: AChE in term placenta sections; test: Cytochemical ChE staining, term placenta; parameters: species or system human; conditions: 10^-5 M
serum normal BuChE (D/D) = test: Inactivation of immobilized serum BuChE, normal; assay type: biochemical, human; conditions: 30 minutes; normal enzyme
[6] = test system: heterozygous serum BuChE (D/G); test: Inactivation of immobilized serum BuChE, heterozygote; assay type: biochemical, human; conditions: 30 minutes
[7] = test system: recombinant human ChEs (all of the examined enzymes); test: Spontaneous reactivation after complete inhibition, all enzymes; assay type: biochemical
"atypical" BuChE [8] = biological target: T2, "atypical" BuChE; conditions: cited from earlier work
Target sequence in this assay (P06276 29-602 D98G limits assumed): as the sequence (P06276 29-602 D98G) above

Rec. BuChE D/D (normal) = biological target: T3, Rec. BuChE D/D (normal) (Homo sapiens, UniProt P06276); test: Inhibition by cocaine / α-solanine, recombinant D/D; assay type: biochemical
T3 construct: made in house; host or cells: Xenopus oocytes (microinjected in vitro transcribed mRNA)

[9] = biological target: T4, Rec. BuChE G/G ("atypical") (Homo sapiens, UniProt P06276, D98G); test: Inhibition by cocaine / α-solanine, recombinant G/G; assay type: biochemical
T4 construct: made in house; host or cells: Xenopus oocytes (microinjected in vitro transcribed mRNA)

Serum BuChE D/D (normal) = biological target: T5, Serum BuChE D/D (normal) (Homo sapiens, UniProt P06276); test: Inhibition by cocaine / α-solanine, serum D/D; assay type: biochemical
T5 construct: with enzyme from normal serum; from tissue; host or cells: human serum, normal homozygote

[10] = biological target: T6, Serum BuChE G/G ("atypical") (Homo sapiens, UniProt P06276, D98G); test: Inhibition by cocaine / α-solanine, serum G/G; assay type: biochemical
T6 construct: applicants prepared serum from an individual who had experienced succinylcholine-induced apnea; from tissue; host or cells: human serum, homozygous carrier of the atypical allele

Rec. AChE = biological target: T7, Rec. AChE (Homo sapiens, UniProt P22303); test: Inhibition by cocaine, recombinant AChE; assay type: biochemical
T7 construct: made in house; host or cells: Xenopus oocytes (injected ACHE DNA, CMV promoter)

[11] = biological target: T8, normal BuChE (serum and recombinant) (Homo sapiens, UniProt P06276); test: Inhibition by cocaine / α-solanine, normal enzymes; assay type: biochemical
T8 construct: made in house; host or cells: Xenopus oocytes (recombinant) and normal human serum (native), reported together

"atypical" BuChE [12] = biological target: T2, "atypical" BuChE; conditions: cited from earlier work; remark: listed apart in the source
Target sequence in this assay (P06276 29-602 D98G limits assumed): as the sequence (P06276 29-602 D98G) above

[13] = test system: myasthenia gravis patients; conditions: in vivo; cited from earlier work
ChE = conditions: cited from earlier work
AD patients = conditions: in vivo; cited from earlier work
[14] = test system: H.K., homozygous for the "atypical" allele; conditions: in vivo
[15] = test system: "atypical" BuChE in H.K.'s serum; test: Serum BuChE hydrolysis, H.K.'s serum; assay type: biochemical, human
[16] = test system: BuChE in sera from heterozygotes
[17] = test system: patients suffering from mild to moderate AD; conditions: cited from earlier work
THA treated patients = conditions: in vivo, cited from earlier work
PD-patient = conditions: in vivo; cited from earlier work
[18] = test system: Rec. BuChE D/G (1:1 mixture); assay type: biochemical, human; conditions: read-out: IC50 α-solanine
[19] = test system: Serum BuChE D/G (heterozygote); assay type: biochemical, human; conditions: read-out: IC50 α-solanine
[20] = biological target: serum and recombinant "atypical" BuChE (Homo sapiens, UniProt P06276, D98G); test: Inhibition by cocaine / α-solanine, "atypical" enzymes; assay type: biochemical; conditions: for activity of "atypical" enzyme at high α-solanine: concentrations higher than 5 μM, FIG. 3
Sequence of serum and recombinant "atypical" BuChE (P06276 29-602 D98G limits assumed): as the sequence (P06276 29-602 D98G) above

Sequence of AChE (E6) (P22303 32-614): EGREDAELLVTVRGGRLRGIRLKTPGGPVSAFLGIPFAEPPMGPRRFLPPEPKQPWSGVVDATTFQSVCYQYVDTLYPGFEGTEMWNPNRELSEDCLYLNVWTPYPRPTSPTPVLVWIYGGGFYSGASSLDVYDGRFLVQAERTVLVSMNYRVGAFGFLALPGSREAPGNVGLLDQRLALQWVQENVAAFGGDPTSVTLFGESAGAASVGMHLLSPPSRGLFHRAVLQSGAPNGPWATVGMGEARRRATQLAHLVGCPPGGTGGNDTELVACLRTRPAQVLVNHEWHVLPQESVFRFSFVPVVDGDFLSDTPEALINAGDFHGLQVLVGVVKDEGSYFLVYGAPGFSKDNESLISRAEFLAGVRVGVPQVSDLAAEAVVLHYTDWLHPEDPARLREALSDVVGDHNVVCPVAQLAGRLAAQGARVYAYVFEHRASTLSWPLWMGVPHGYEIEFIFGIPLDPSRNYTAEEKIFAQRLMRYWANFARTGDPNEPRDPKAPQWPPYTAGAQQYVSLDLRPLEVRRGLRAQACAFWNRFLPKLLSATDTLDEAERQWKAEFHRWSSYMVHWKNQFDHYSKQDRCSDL
Sequence of AChE (E5) (P22303-4 with tags, fused parts or gaps limits assumed): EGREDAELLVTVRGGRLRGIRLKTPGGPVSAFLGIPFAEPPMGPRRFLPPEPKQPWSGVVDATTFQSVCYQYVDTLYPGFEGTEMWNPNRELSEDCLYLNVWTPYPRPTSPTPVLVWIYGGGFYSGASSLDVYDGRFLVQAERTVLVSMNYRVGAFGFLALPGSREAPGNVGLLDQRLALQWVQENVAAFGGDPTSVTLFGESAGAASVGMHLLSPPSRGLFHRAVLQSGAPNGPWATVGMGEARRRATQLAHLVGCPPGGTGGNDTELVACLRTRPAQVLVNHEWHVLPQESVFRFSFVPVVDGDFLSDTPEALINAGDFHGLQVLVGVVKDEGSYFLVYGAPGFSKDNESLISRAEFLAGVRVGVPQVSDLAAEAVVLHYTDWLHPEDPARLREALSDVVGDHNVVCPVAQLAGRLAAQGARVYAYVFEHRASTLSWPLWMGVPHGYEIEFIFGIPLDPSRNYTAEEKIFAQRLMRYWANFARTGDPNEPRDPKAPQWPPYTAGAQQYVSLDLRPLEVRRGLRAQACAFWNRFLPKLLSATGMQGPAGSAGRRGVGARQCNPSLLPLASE
T1 sequence (P06276 29-602): as the sequence (P06276 29-602 D98G) above, with G70D counted along it
T6 sequence (P06276 29-602 D98G): as the sequence (P06276 29-602 D98G) above
T4 sequence (P06276 29-602 D98G): as above
T5 sequence (P06276 29-602): as the sequence (P06276 29-602 D98G) above, with G70D counted along it
T3 sequence (P06276 29-602): as the sequence (P06276 29-602 D98G) above, with G70D counted along it
T8 sequence (P06276 29-602): as the sequence (P06276 29-602 D98G) above, with G70D counted along it
T7 sequence (P22303 32-614): as the sequence (P22303 32-614) above

## CCCCCCCNC(=O)Oc1ccc2c(c1)C1(C)CCN(C)C1N2C (single isomer, unassigned) [N-heptyl physostigmine]
Recombinant normal BuChE
  inactivation rate compared with AChE: higher than or equal to ACHE
  second order rate constant ki for inactivation: 183000 ± 50000 M⁻¹ s⁻¹
[1]
  rate of irreversible inactivation versus normal: much slower than its normal counterpart
Recombinant human AChE; both AChE forms, N-heptyl physostigmine
  spontaneous reactivation, % of original activity: 5%
[2]; by 20 minutes, normal and "atypical" BuChE
  spontaneous reactivation, % of original activity: 10%
"atypical" BuChE [3]
  inactivation rate of "atypical" BuChE, compared: considerably lower rates
AChE (E6)
  second order rate constant ki for inactivation: 26700 M⁻¹ s⁻¹
AChE (E5)
  second order rate constant ki for inactivation: 23300 ± 6700 M⁻¹ s⁻¹

## C=CC[N+](C)(C)c1ccc(CCC(=O)CCc2ccc([N+](C)(C)CC=C)cc2)cc1 [BW284C51, 1,5-bis-(4-allyldimethylammoniumphenyl)-pentane-3-one dibromide]
[4]
  staining of early placenta sections: not early placenta
[5]
  staining of term placenta: largely suppressed staining in term

## CCN(C)C(=O)Oc1cccc([C@H](C)N(C)C)c1 [SDZ ENA-713]
Recombinant normal BuChE
  inactivation rate compared with AChE: higher than or equal to ACHE
  second order rate constant ki for inactivation: 233 ± 50 M⁻¹ s⁻¹
Serum normal BuChE (D/D)
  loss of activity: 95%
[6]
  loss of activity: 80%
[1]; 30 minutes, "atypical" BuChE
  decrease in activity: about 40%
[1]
  rate of irreversible inactivation versus normal: much slower than its normal counterpart
[7]
  spontaneous reactivation, % of original activity: ≤ 8%
"atypical" BuChE [3]
  inactivation rate of "atypical" BuChE, compared: considerably lower rates
AChE (E6)
  second order rate constant ki for inactivation: 71.7 M⁻¹ s⁻¹
AChE (E5)
  second order rate constant ki for inactivation: 55 ± 10 M⁻¹ s⁻¹

## CN(C)C(=O)Oc1cc(OC(=O)N(C)C)cc(C(O)CNC(C)(C)C)c1 (centres unmarked) [bambuterol]
"atypical" BuChE [8]
  higher IC50 value, "atypical" versus wild-type: at least 10 fold
  higher Ki value, "atypical" versus wild-type: at least 10 fold

## COC(=O)[C@H]1[C@@H](OC(=O)c2ccccc2)C[C@@H]2CC[C@H]1N2C [cocaine]
Rec. BuChE D/D (normal)
  IC50: 280 ± 20 µM
[9]
  IC50: 4050 ± 50 µM
Serum BuChE D/D (normal)
  IC50: 320 ± 80 µM
[10]
  IC50: 5200 ± 300 µM
Rec. AChE
  IC50: 3450 ± 2150 µM
[11]
  IC50: 300 µM

## CCCCOc1cc(C(=O)NCCN(CC)CC)c2ccccc2n1 [dibucaine]
"atypical" BuChE [12]
  hydrolysis by the affected ("atypical") enzyme: inability

## CC[N+](C)(C)c1cccc(O)c1 [edrophonium]
[13]
  relief of symptoms: immediate, but brief, relief of the characteristic symptoms

## CC(C)NP(=O)(NC(C)C)OP(=O)(NC(C)C)NC(C)C [iso-OMPA, tetraisopropylpyrophosphoramide]
[4]
  staining of early placenta sections: remained totally unlabeled
[5]
  staining of term placenta: no reduction in labeling intensity
"atypical" BuChE [8]
  sensitivity of atypical variant to inhibitors: much less sensitive

## CN(C)C(=O)Oc1cccc([N+](C)(C)C)c1 [neostigmine]
ChE
  potency / affinity: potency equal to or greater than physostigmine

## CNC(=O)Oc1ccc2c(c1)[C@]1(C)CCN(C)[C@@H]1N2C [physostigmine]
Recombinant normal BuChE
  inactivation rate compared with AChE: higher than or equal to ACHE
  second order rate constant ki for inactivation: 6330 ± 2670 M⁻¹ s⁻¹
[1]
  rate of irreversible inactivation versus normal: much slower than its normal counterpart
Recombinant human AChE; 45 minutes, AChE
  spontaneous reactivation, % of original activity: up to 90%
"atypical" BuChE [3]
  inactivation rate of "atypical" BuChE, compared: considerably lower rates
"atypical" BuChE [8]
  higher IC50 value, "atypical" versus wild-type: at least 10 fold
  higher Ki value, "atypical" versus wild-type: at least 10 fold
  sensitivity of atypical variant to inhibitors: much less sensitive
AD patients
  effect on cognitive functions: small, short-term positive effect on cognitive functions

## CN(C)C(=O)Oc1ccc[n+](C)c1 [pyridostigmine]
Recombinant normal BuChE
  second order rate constant ki for inactivation: 31.7 ± 3.3 M⁻¹ s⁻¹
[1]
  rate of irreversible inactivation versus normal: much slower than its normal counterpart
Recombinant human AChE; AChE, pyridostigmine, FIG. 4
  spontaneous reactivation, % of original activity: 50%
[2]; BuChE, pyridostigmine, FIG. 4
  spontaneous reactivation, % of original activity: 10%
[14]
  adverse symptoms: insomnia, weight loss and general fatigue, which worsened consistently, and a deep depression
  time of gradual improvement following discontinuation: 10 weeks
AChE (E6)
  second order rate constant ki for inactivation: 367 ± 150 M⁻¹ s⁻¹
AChE (E5)
  second order rate constant ki for inactivation: 417 M⁻¹ s⁻¹

## C[N+](C)(C)CCOC(=O)CCC(=O)OCC[N+](C)(C)C [succinylcholine]
[15]
  hydrolysis of succinylcholine by H.K.'s serum BuChE: totally incapable of hydrolyzing succinylcholine; also recorded: cannot hydrolyze succinylcholine
"atypical" BuChE [12]
  hydrolysis by the affected ("atypical") enzyme: unable to hydrolyze succinylcholine
"atypical" BuChE [12]; listed as succinyl choline
  hydrolysis by the affected ("atypical") enzyme: unable to hydrolyze succinyl choline; also recorded: inability

## Nc1c2c(nc3ccccc13)CCCC2 [tacrine, 1,2,3,4-tetrahydro-9 aminoacridine]
[16]
  effect of 1 μm of the drug: intermediate levels of activity
[17]; 30 weeks
  improvement in AD: statistically significant, dose-related improvements
[17]; in 2% of the cases
  serum level of the aminotransferase: 20 times the upper limit of normal value
[17]; in vivo
  cases reaching 20 times the upper limit of normal aminotransferase: 2%
  serum level of the aminotransferase, usual: less than three times the upper limit of normal value
THA treated patients
  patients with cholinergic side-effects / deficits: up to 15%
THA treated patients; listed as THA
  patients with cholinergic side-effects / deficits: over 10%
PD-patient
  PD symptoms: worsening of the symptoms

## C[C@H]1CC[C@@H]2[C@@H](C)[C@H]3[C@H](C[C@H]4[C@@H]5CC=C6C[C@@H](O[C@@H]7O[C@H](CO)[C@H](O)[C@H](O[C@@H]8O[C@H](CO)[C@@H](O)[C@H](O)[C@H]8O)[C@H]7O[C@@H]7O[C@@H](C)[C@H](O)[C@@H](O)[C@H]7O)CC[C@]6(C)[C@H]5CC[C@]34C)N2C1 [α-solanine]
Rec. BuChE D/D (normal); Rec. BuChE D/D, read-out: IC50 α-solanine
  IC50: 1.95 ± 1.04 µM
[18]
  IC50: 3.54 ± 2.41 µM
[9]; Rec. BuChE G/G, read-out: IC50 α-solanine
  IC50: 171 µM
Serum BuChE D/D (normal); Serum BuChE D/D, read-out: IC50 α-solanine
  IC50: 2.88 ± 0.33 µM
[19]
  IC50: 3.61 ± 0.81 µM
[10]; Serum BuChE G/G, read-out: IC50 α-solanine
  IC50: 165 µM
[20]; "atypical"
  IC50: 170 µM
[20]; "atypical" vs normal
  IC50 difference for α-solanine: > 100 fold
[20]
  activity of "atypical" enzyme at high α-solanine: retains higher activity than the normal and the heterozygote enzymes
[20]; listed as α-solanidine
  activity of "atypical" enzyme at high α-solanine: shows higher activities than the normal, D70 enzyme
[20]; up to 10 μM
  inhibition of "atypical" enzyme by α-solanine: relatively inert
[11]; normal, read-out: IC50 for α-solanine
  IC50: 2.5 µM
